Measurements published in the NIST ThermoML archive (doi:10.1016/j.fluid.2010.05.018).
Numbers after ± are expanded uncertainties.

Conditions: 298.15 K; 101.33 kPa; Liquid; Vibrating tube method

mass density [kg/m3]	SMILES
1754.28 ± 0.44	FC(F)(F)C(F)(F)C(F)(F)C(F)(F)C(F)(F)C(F)(F)C(F)(F)C(F)(F)F [octadecafluorooctane]
1670.07 ± 0.32	FC(F)(F)C(F)(F)C(F)(F)C(F)(F)C(F)(F)C(F)(F)F [perfluorohexane]
